4 molecules from patent publication US8829199B2, “Aminopyrazole derivative” (Chugai Seiyaku Kabushiki Kaisha, priority 2009, dated 2014) can be followed below.

For one assay, the target named is human FGFR3 enzyme (Homo sapiens (Human), UniProt P22607). The experiment in a line: Inhibitory activity against the FGFR3 enzyme (phosphorylation of biotinylated peptide, time-resolved fluorescence).
Another assay has as its target human FGFR1 enzyme (Homo sapiens (Human), UniProt P11362). The experiment in a line: Inhibitory activity against the FGFR1 enzyme (phosphorylation of biotinylated peptide, time-resolved fluorescence).
In another assay the target is human FGFR2 enzyme (Homo sapiens (Human), UniProt P21802). The experiment in a line: Inhibitory activity against the FGFR2 enzyme (phosphorylation of biotinylated peptide, time-resolved fluorescence).
Sequence of human FGFR2 enzyme (P21802 22-821): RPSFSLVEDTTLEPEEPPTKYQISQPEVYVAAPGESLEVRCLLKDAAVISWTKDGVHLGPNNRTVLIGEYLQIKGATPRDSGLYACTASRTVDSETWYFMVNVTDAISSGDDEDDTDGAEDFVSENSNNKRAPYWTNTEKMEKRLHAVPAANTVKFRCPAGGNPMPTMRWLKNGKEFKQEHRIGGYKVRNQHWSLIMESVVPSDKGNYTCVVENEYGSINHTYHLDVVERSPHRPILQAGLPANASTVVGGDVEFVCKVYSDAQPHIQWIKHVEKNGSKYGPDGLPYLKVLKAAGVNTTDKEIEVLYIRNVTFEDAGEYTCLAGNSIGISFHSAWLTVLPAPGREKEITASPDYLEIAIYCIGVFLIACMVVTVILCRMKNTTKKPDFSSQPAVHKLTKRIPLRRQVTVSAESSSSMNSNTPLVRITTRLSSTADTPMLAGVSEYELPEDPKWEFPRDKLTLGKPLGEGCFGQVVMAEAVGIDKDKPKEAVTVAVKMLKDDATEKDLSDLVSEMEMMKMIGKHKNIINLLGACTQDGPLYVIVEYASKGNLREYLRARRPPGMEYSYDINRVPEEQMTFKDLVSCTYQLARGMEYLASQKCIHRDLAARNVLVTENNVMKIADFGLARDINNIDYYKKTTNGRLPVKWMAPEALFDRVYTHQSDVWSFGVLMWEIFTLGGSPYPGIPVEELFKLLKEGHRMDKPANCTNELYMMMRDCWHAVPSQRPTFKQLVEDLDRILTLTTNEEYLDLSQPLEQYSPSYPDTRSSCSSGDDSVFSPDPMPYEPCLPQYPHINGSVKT

A value given as a limit tells only on which side of the number the result lay.

Sequence of human FGFR3 enzyme (P22607 23-806): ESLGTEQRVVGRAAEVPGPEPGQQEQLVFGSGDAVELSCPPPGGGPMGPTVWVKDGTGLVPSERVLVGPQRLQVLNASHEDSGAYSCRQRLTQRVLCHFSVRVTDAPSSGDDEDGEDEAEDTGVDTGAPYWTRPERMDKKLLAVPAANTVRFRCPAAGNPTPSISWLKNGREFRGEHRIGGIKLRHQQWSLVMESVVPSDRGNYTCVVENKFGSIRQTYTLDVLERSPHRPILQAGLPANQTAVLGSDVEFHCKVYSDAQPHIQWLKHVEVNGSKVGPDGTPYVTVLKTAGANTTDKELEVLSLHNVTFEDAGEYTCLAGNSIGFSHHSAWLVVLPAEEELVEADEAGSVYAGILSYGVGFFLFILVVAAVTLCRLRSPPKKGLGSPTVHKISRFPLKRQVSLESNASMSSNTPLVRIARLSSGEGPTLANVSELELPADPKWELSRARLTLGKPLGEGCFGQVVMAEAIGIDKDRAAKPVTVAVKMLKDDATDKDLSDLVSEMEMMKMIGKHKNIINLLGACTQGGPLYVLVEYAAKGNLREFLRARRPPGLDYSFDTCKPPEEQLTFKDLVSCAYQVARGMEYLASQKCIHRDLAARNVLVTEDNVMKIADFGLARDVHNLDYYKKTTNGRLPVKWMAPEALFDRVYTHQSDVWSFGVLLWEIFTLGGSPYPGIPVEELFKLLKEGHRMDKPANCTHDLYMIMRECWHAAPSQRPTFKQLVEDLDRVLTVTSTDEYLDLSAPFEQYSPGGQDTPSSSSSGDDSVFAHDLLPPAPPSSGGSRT
Sequence of human FGFR1 enzyme (P11362 22-822): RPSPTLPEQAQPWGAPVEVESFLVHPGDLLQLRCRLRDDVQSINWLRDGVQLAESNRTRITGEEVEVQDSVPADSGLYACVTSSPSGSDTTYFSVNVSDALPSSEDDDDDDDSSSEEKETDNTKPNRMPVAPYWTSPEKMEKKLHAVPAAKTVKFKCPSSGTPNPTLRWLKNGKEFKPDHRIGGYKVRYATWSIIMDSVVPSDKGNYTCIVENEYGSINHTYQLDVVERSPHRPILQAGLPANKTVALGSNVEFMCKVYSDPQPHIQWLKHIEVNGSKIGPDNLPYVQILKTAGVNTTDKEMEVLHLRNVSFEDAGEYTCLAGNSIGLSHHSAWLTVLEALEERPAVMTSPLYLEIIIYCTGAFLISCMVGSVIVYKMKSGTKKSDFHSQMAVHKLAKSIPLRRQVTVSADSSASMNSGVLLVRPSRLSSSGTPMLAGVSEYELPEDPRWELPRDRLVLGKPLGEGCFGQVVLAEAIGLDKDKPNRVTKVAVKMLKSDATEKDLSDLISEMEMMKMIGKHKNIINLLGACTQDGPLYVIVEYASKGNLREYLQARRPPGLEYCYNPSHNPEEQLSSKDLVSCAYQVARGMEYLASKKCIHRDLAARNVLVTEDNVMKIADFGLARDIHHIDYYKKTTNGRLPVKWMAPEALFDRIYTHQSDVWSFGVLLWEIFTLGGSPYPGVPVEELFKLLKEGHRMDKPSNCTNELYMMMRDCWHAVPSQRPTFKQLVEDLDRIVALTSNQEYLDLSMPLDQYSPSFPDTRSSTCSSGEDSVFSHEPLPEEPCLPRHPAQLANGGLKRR
Source text for human FGFR1 enzyme: Inhibitory Activity Against the FGFR1 Enzyme
(§1) Phosphorylated biotinylated peptides were detected by the time-resolved fluorescent measurement using a europium cryptate-linked anti-phophotyrosine antibody and a streptavidin to which XL665, a derivative of allophycocyanine, is linked.
Source text for human FGFR2 enzyme: as §1
Source text for human FGFR3 enzyme: Inhibitory Activity Against the FGFR3 Enzyme
as §1

One may read the IC50 as the concentration that gives 50% inhibition. A high value points to lower potency. The molecule `Cc1ccnc(-c2ccc3cc(C(=O)c4cnn(-c5ccc6[nH]c(C)nc6c5)c4N)[nH]c3c2)c1` [Example 32] registered a 50% inhibitory concentration (IC50) against human FGFR3 enzyme of no more than 300 nM.
Same read-out and setting: for `Cc1nc2cc(-n3ncc(C(=O)c4cc5cc6c(cc5[nH]4)OCO6)c3N)ccc2[nH]1` [Example 61, [5-amino-1-(2-methyl-1H-benzimidazol-5-yl)-1H-pyrazol-4-yl]-(5H-[1,3]dioxolo[4,5-f]indol-6-yl)-methanone] the value was no more than 300 nM.
On the same count and under the same terms, then `Cc1nc2cc(-n3ncc(C(=O)c4cc5ccc(-c6ccnnc6)cc5[nH]4)c3N)ccc2[nH]1` [Example 89, [5-amino-1-(2-methyl-1H-benzimidazol-5-yl)-1H-pyrazol-4-yl]-(6-pyridazin-4-yl-1H-indol-2-yl)-methanone], with no more than 300 nM.
Turning to `Cc1nc2cc(-n3ncc(C(=O)c4cc5ccc(-c6ccc(N7CCNCC7)nc6)cc5[nH]4)c3N)ccc2[nH]1` [Example 110, [5-amino-1-(2-methyl-1H-benzimidazol-5-yl)-1H-pyrazol-4-yl]-[6-(6-piperazin-1-yl-pyridin-3-yl)-1H-indol-2-yl]-methanone], the IC50 against human FGFR1 enzyme, against human FGFR2 enzyme and on human FGFR3 enzyme was no more than 300 nM throughout.
